Test results published in the supplement of paper PMC8882468.

Tested on: HCI-002 (organoid from a triple-negative breast cancer xenograft)
Experiment: CTG-3D luminescence at 96 h relative to day-0 seeding control (ratio to day 0); higher = more growth / less cytotoxicity; PDxO 3D drug screen, 96 h, CTG-3D normalised to day-0 seeding control.
Settings: 12.5 pM; days in culture: 62

Point of comparison: COc1cc2c(Oc3ccc4[nH]c(C)cc4c3F)ncnc2cc1OCCCN1CCCC1 [cediranib], “CTG-3D luminescence at 96 h” value 2.64. Against it:
- CC(C)n1nc(-c2ccc3oc(N)nc3c2)c2c(N)ncnc21 [sapanisertib] — higher, 2.83
- Cc1cc(Nc2ncnc3ccc(NC4=NC(C)(C)CO4)cc23)ccc1Oc1ccn2ncnc2c1 [tucatinib] — higher, 2.76
- C[C@H](NC(=O)CCC(F)(F)F)C(=O)N[C@@H]1C(=O)N(CCO)c2ncccc2-c2ccccc21 [crenigacestat] — higher, 2.87
- C[C@]12CC[C@@H]3c4ccc(O)cc4C[C@@H](CCCCCCCCC[S+]([O-])CCCC(F)(F)C(F)(F)F)[C@H]3[C@@H]1CC[C@@H]2O (some centres not stated) [fulvestrant] — higher, 2.97
- O=C(c1ccc(F)c(F)c1Nc1ccc(I)cc1F)N1CC(O)([C@@H]2CCCCN2)C1 [cobimetinib] — higher, 2.96
- O=C(/C=C/c1cccnc1)NCCCCC1CCN(C(=O)c2ccccc2)CC1 [FK866] — higher, 2.68
- CS(=O)(=O)c1ccc(C(=O)Nc2ccc(Cl)c(-c3ccccn3)c2)c(Cl)c1 [vismodegib] — higher, 2.81
- C=CCn1c(=O)c2cnc(Nc3ccc(N4CCN(C)CC4)cc3)nc2n1-c1cccc(C(C)(C)O)n1 [adavosertib] — higher, 3.1

Same assay, conditions: 12.5 pM; days in culture: 82

Point of comparison: O=C(/C=C/c1cccnc1)NCCCCC1CCN(C(=O)c2ccccc2)CC1 [FK866], “CTG-3D luminescence at 96 h” value 2.77. Against it:
- COc1cc2c(Oc3ccc4[nH]c(C)cc4c3F)ncnc2cc1OCCCN1CCCC1 [cediranib] — lower, 2.68
- CC(C)n1nc(-c2ccc3oc(N)nc3c2)c2c(N)ncnc21 [sapanisertib] — higher, 3.4
- Cc1cc(Nc2ncnc3ccc(NC4=NC(C)(C)CO4)cc23)ccc1Oc1ccn2ncnc2c1 [tucatinib] — lower, 2.73
- C[C@H](NC(=O)CCC(F)(F)F)C(=O)N[C@@H]1C(=O)N(CCO)c2ncccc2-c2ccccc21 [crenigacestat] — higher, 3.27
- C[C@]12CC[C@@H]3c4ccc(O)cc4C[C@@H](CCCCCCCCC[S+]([O-])CCCC(F)(F)C(F)(F)F)[C@H]3[C@@H]1CC[C@@H]2O (some centres not stated) [fulvestrant] — higher, 2.97
- O=C(c1ccc(F)c(F)c1Nc1ccc(I)cc1F)N1CC(O)([C@@H]2CCCCN2)C1 [cobimetinib] — higher, 3.18
- CS(=O)(=O)c1ccc(C(=O)Nc2ccc(Cl)c(-c3ccccn3)c2)c(Cl)c1 [vismodegib] — higher, 3.27
- C=CCn1c(=O)c2cnc(Nc3ccc(N4CCN(C)CC4)cc3)nc2n1-c1cccc(C(C)(C)O)n1 [adavosertib] — higher, 2.82

Same assay, conditions: 12.5 pM; days in culture: 91

Point of comparison: O=C(c1ccc(F)c(F)c1Nc1ccc(I)cc1F)N1CC(O)([C@@H]2CCCCN2)C1 [cobimetinib], “CTG-3D luminescence at 96 h” value 3.83. Against it:
- COc1cc2c(Oc3ccc4[nH]c(C)cc4c3F)ncnc2cc1OCCCN1CCCC1 [cediranib] — higher, 4.4
- CC(C)n1nc(-c2ccc3oc(N)nc3c2)c2c(N)ncnc21 [sapanisertib] — higher, 4.16
- Cc1cc(Nc2ncnc3ccc(NC4=NC(C)(C)CO4)cc23)ccc1Oc1ccn2ncnc2c1 [tucatinib] — lower, 3.43
- C[C@H](NC(=O)CCC(F)(F)F)C(=O)N[C@@H]1C(=O)N(CCO)c2ncccc2-c2ccccc21 [crenigacestat] — higher, 3.89
- C[C@]12CC[C@@H]3c4ccc(O)cc4C[C@@H](CCCCCCCCC[S+]([O-])CCCC(F)(F)C(F)(F)F)[C@H]3[C@@H]1CC[C@@H]2O (some centres not stated) [fulvestrant] — lower, 3.59
- O=C(/C=C/c1cccnc1)NCCCCC1CCN(C(=O)c2ccccc2)CC1 [FK866] — higher, 3.92
- CS(=O)(=O)c1ccc(C(=O)Nc2ccc(Cl)c(-c3ccccn3)c2)c(Cl)c1 [vismodegib] — lower, 2.97
- C=CCn1c(=O)c2cnc(Nc3ccc(N4CCN(C)CC4)cc3)nc2n1-c1cccc(C(C)(C)O)n1 [adavosertib] — lower, 3.69

Same assay, conditions: 12.5 pM; days in culture: 191

Point of comparison: CC(C)n1nc(-c2ccc3oc(N)nc3c2)c2c(N)ncnc21 [sapanisertib], “CTG-3D luminescence at 96 h” value 2.25. Against it:
- COc1cc2c(Oc3ccc4[nH]c(C)cc4c3F)ncnc2cc1OCCCN1CCCC1 [cediranib] — higher, 2.49
- Cc1cc(Nc2ncnc3ccc(NC4=NC(C)(C)CO4)cc23)ccc1Oc1ccn2ncnc2c1 [tucatinib] — higher, 2.63
- C[C@H](NC(=O)CCC(F)(F)F)C(=O)N[C@@H]1C(=O)N(CCO)c2ncccc2-c2ccccc21 [crenigacestat] — higher, 2.59
- C[C@]12CC[C@@H]3c4ccc(O)cc4C[C@@H](CCCCCCCCC[S+]([O-])CCCC(F)(F)C(F)(F)F)[C@H]3[C@@H]1CC[C@@H]2O (some centres not stated) [fulvestrant] — higher, 2.73
- O=C(c1ccc(F)c(F)c1Nc1ccc(I)cc1F)N1CC(O)([C@@H]2CCCCN2)C1 [cobimetinib] — higher, 2.68
- O=C(/C=C/c1cccnc1)NCCCCC1CCN(C(=O)c2ccccc2)CC1 [FK866] — higher, 2.81
- CS(=O)(=O)c1ccc(C(=O)Nc2ccc(Cl)c(-c3ccccn3)c2)c(Cl)c1 [vismodegib] — higher, 3.3
- C=CCn1c(=O)c2cnc(Nc3ccc(N4CCN(C)CC4)cc3)nc2n1-c1cccc(C(C)(C)O)n1 [adavosertib] — higher, 2.59

Same assay, conditions: 12.5 pM; days in culture: 209

Point of comparison: COc1cc2c(Oc3ccc4[nH]c(C)cc4c3F)ncnc2cc1OCCCN1CCCC1 [cediranib], “CTG-3D luminescence at 96 h” value 2.4. Against it:
- CC(C)n1nc(-c2ccc3oc(N)nc3c2)c2c(N)ncnc21 [sapanisertib] — higher, 2.41
- Cc1cc(Nc2ncnc3ccc(NC4=NC(C)(C)CO4)cc23)ccc1Oc1ccn2ncnc2c1 [tucatinib] — lower, 2.22
- C[C@H](NC(=O)CCC(F)(F)F)C(=O)N[C@@H]1C(=O)N(CCO)c2ncccc2-c2ccccc21 [crenigacestat] — higher, 2.47
- C[C@]12CC[C@@H]3c4ccc(O)cc4C[C@@H](CCCCCCCCC[S+]([O-])CCCC(F)(F)C(F)(F)F)[C@H]3[C@@H]1CC[C@@H]2O (some centres not stated) [fulvestrant] — lower, 2.15
- O=C(c1ccc(F)c(F)c1Nc1ccc(I)cc1F)N1CC(O)([C@@H]2CCCCN2)C1 [cobimetinib] — higher, 2.44
- O=C(/C=C/c1cccnc1)NCCCCC1CCN(C(=O)c2ccccc2)CC1 [FK866] — higher, 2.49
- CS(=O)(=O)c1ccc(C(=O)Nc2ccc(Cl)c(-c3ccccn3)c2)c(Cl)c1 [vismodegib] — higher, 2.66
- C=CCn1c(=O)c2cnc(Nc3ccc(N4CCN(C)CC4)cc3)nc2n1-c1cccc(C(C)(C)O)n1 [adavosertib] — lower, 2.27

Same assay, conditions: 12.5 pM; days in culture: 227

Point of comparison: COc1cc2c(Oc3ccc4[nH]c(C)cc4c3F)ncnc2cc1OCCCN1CCCC1 [cediranib], “CTG-3D luminescence at 96 h” value 5.77. Against it:
- CC(C)n1nc(-c2ccc3oc(N)nc3c2)c2c(N)ncnc21 [sapanisertib] — lower, 5.28
- Cc1cc(Nc2ncnc3ccc(NC4=NC(C)(C)CO4)cc23)ccc1Oc1ccn2ncnc2c1 [tucatinib] — lower, 5.23
- C[C@H](NC(=O)CCC(F)(F)F)C(=O)N[C@@H]1C(=O)N(CCO)c2ncccc2-c2ccccc21 [crenigacestat] — lower, 5.37
- C[C@]12CC[C@@H]3c4ccc(O)cc4C[C@@H](CCCCCCCCC[S+]([O-])CCCC(F)(F)C(F)(F)F)[C@H]3[C@@H]1CC[C@@H]2O (some centres not stated) [fulvestrant] — lower, 5.09
- O=C(c1ccc(F)c(F)c1Nc1ccc(I)cc1F)N1CC(O)([C@@H]2CCCCN2)C1 [cobimetinib] — lower, 5.23
- O=C(/C=C/c1cccnc1)NCCCCC1CCN(C(=O)c2ccccc2)CC1 [FK866] — lower, 5.05
- CS(=O)(=O)c1ccc(C(=O)Nc2ccc(Cl)c(-c3ccccn3)c2)c(Cl)c1 [vismodegib] — lower, 4.93
- C=CCn1c(=O)c2cnc(Nc3ccc(N4CCN(C)CC4)cc3)nc2n1-c1cccc(C(C)(C)O)n1 [adavosertib] — higher, 6.7

Same assay, conditions: 0.00025 µM; days in culture: 62

Point of comparison: C=CCn1c(=O)c2cnc(Nc3ccc(N4CCN(C)CC4)cc3)nc2n1-c1cccc(C(C)(C)O)n1 [adavosertib], “CTG-3D luminescence at 96 h” value 2.91. Against it:
- COc1cc2c(Oc3ccc4[nH]c(C)cc4c3F)ncnc2cc1OCCCN1CCCC1 [cediranib] — lower, 2.39
- CC(C)n1nc(-c2ccc3oc(N)nc3c2)c2c(N)ncnc21 [sapanisertib] — lower, 2.68
- Cc1cc(Nc2ncnc3ccc(NC4=NC(C)(C)CO4)cc23)ccc1Oc1ccn2ncnc2c1 [tucatinib] — lower, 2.54
- C[C@H](NC(=O)CCC(F)(F)F)C(=O)N[C@@H]1C(=O)N(CCO)c2ncccc2-c2ccccc21 [crenigacestat] — lower, 2.47
- C[C@]12CC[C@@H]3c4ccc(O)cc4C[C@@H](CCCCCCCCC[S+]([O-])CCCC(F)(F)C(F)(F)F)[C@H]3[C@@H]1CC[C@@H]2O (some centres not stated) [fulvestrant] — lower, 2.65
- O=C(c1ccc(F)c(F)c1Nc1ccc(I)cc1F)N1CC(O)([C@@H]2CCCCN2)C1 [cobimetinib] — lower, 2.54
- O=C(/C=C/c1cccnc1)NCCCCC1CCN(C(=O)c2ccccc2)CC1 [FK866] — lower, 2.55
- CS(=O)(=O)c1ccc(C(=O)Nc2ccc(Cl)c(-c3ccccn3)c2)c(Cl)c1 [vismodegib] — lower, 2.88

Same assay, conditions: 0.00025 µM; days in culture: 82

Point of comparison: C=CCn1c(=O)c2cnc(Nc3ccc(N4CCN(C)CC4)cc3)nc2n1-c1cccc(C(C)(C)O)n1 [adavosertib], “CTG-3D luminescence at 96 h” value 2.68. Against it:
- COc1cc2c(Oc3ccc4[nH]c(C)cc4c3F)ncnc2cc1OCCCN1CCCC1 [cediranib] — higher, 2.82
- CC(C)n1nc(-c2ccc3oc(N)nc3c2)c2c(N)ncnc21 [sapanisertib] — higher, 3.17
- Cc1cc(Nc2ncnc3ccc(NC4=NC(C)(C)CO4)cc23)ccc1Oc1ccn2ncnc2c1 [tucatinib] — higher, 3.27
- C[C@H](NC(=O)CCC(F)(F)F)C(=O)N[C@@H]1C(=O)N(CCO)c2ncccc2-c2ccccc21 [crenigacestat] — higher, 3.18
- C[C@]12CC[C@@H]3c4ccc(O)cc4C[C@@H](CCCCCCCCC[S+]([O-])CCCC(F)(F)C(F)(F)F)[C@H]3[C@@H]1CC[C@@H]2O (some centres not stated) [fulvestrant] — higher, 2.85
- O=C(c1ccc(F)c(F)c1Nc1ccc(I)cc1F)N1CC(O)([C@@H]2CCCCN2)C1 [cobimetinib] — higher, 3.07
- O=C(/C=C/c1cccnc1)NCCCCC1CCN(C(=O)c2ccccc2)CC1 [FK866] — higher, 3.14
- CS(=O)(=O)c1ccc(C(=O)Nc2ccc(Cl)c(-c3ccccn3)c2)c(Cl)c1 [vismodegib] — higher, 3.52
